Non-standard residues stand in square brackets, D forms with d. Residues, ends and D or L forms follow the SMILES beside them. Dip = N[C@H](C(=O)O)C(c1ccccc1)c1ccccc1
How the values were obtained:
[1] = system: K5627/Gleevec; type: cell-based, human; conditions: resistant
Procedure: Tumor cells were grown as adherent monolayers or as suspensions at 37° C. in a humidified atmosphere (5% CO2, 95% air). The culture medium was RPMI 1640 containing 2 mM L-glutamine (Lonza, Belgium) and supplemented with 10% fetal bovine serum (FBS, Lonza). For experimental use, the adherent cells were detached from the culture flask by a 5-minute treatment with trypsin-versene (Lonza), diluted in Hanks' medium without calcium or magnesium (Lonza) and neutralized by addition of complete culture medium. Cells were counted in a hemocytometer and their viability was assessed by 0.25% trypan blue exclusion. […]
Three independent experiments were performed, each concentration being tested in quadruplicate. […] At the end of treatments, the cytotoxic activity was evaluated by a MTS assay (see § 3.3). […]
At the end of the cells treatment, 40 μl of a 0.22 μm filtered freshly combined solution of MTS (20 ml at 2 mg/ml, Ref G1111, Batch 235897, Exp 03/2009, Promega, Charbonnières, France) and PMS (1 ml at 0.92 mg/ml, Ref P9625, Batch 065K0961, Sigma) in Dulbecco's Phosphate Buffered Saline (DPBS, Ref 17-513Q, Batch 6MB0152, Cambrex), were added in each well. […] Absorbency (OD) were measured at 490 nm in each well using VICTOR^3TM 1420 multilabeled counter (Wallac, PerkinElmer, Courtaboeuf, France). […]

[2] = system: murine A20 B-cell lymphoma; assay: Murine A20 B-cell lymphoma tumours in mice, intratumoural treatment; type: in vivo; conditions: for Mean tumour size (mm^2) at day 1: prior to start of treatment
Procedure: The administration took place by intratumoural injection of LTX-315 dissolved in sterile saline.
The mice were divided into four groups (see Table 8 below for details). The intratumoural treatment was initiated when the tumours had reached the desired size of approximately 5 mm in diameter (minimum of 20 mm^2).
Three dose levels of LTX-315, 1 mg (Group 1), 0.5 mg (Group 2) and 0.25 mg (Group 3) per injection, were investigated. The volume was 50 μl for all injections. LTX-315 was dissolved in sterile 0.9% NaCl water solution. This vehicle was used as control (Group 4). All four groups received three injections.
A calliper was used for tumour size measurements and weighing and physical examination were used as health control.

[3] = system: CT26WT colon carcinoma cells; assay: Re-challenge with CT26WT cells in mice with complete tumour regression; type: in vivo
Procedure: Methods: Female Balb-c mice (n=4), previously treated with LTX-315, 1 mg) or (n=9); previously treated with LTX-315 0.5 or 1 mg) were re-inoculated (s.c. in the abdominal area) with either murine A20 B cell lymphoma cells or CT26WT colon carcinoma cells (5 million) respectively 6 weeks following initial treatment with LTX-315. Tumour growth was monitored for up to 36 days following re-inoculation.

[4] = Group 1, 1 mg intratumoural days 1,2,3
[5] = Group 2, 0.5 mg intratumoural days 1,2,3
[6] = Group 3, 0.25 mg intratumoural days 1,2,3

NCCCC[C@H](NC(=O)[C@@H](NC(=O)[C@H](Cc1c[nH]c2ccccc12)NC(=O)[C@H](CCCCN)NC(=O)[C@H](CCCCN)NC(=O)[C@H](Cc1c[nH]c2ccccc12)NC(=O)[C@H](Cc1c[nH]c2ccccc12)NC(=O)[C@H](CCCCN)NC(=O)[C@@H](N)CCCCN)C(c1ccccc1)c1ccccc1)C(N)=O [LTX-315, K-K-W-W-K-K-W-Dip-K-NH2] (H-KKWWKKW[Dip]K-NH2)
IC50 [1]: 2980 nM | Mean tumour size (mm^2) on day 4 [2, 4]: 0 mm^2 | Mean tumour size (mm^2) on day 9 [2, 4]: 3.70 ± 2.40 mm^2 | Mean tumour size (mm^2) on day 14 [2, 4]: 12.43 ± 7.87 mm^2 | Mean tumour size (mm^2) at day 1 [2, 4]: 25.82 ± 0.80 mm^2 | Relapse of Tumour ([2]; Group 1, 1 mg x3): 25% | Free of Tumour at end of Follow-Up ([2]; Group 1, 1 mg x3, n=7): 42.8% | Tumour Response: complete response ([2]; Group 1, 1 mg x3, n=7): 57.2% | Tumour Response: partial response ([2]; Group 1, 1 mg x3, n=7): 42.8% | treated mice with a complete tumour response ([2]; Group 1, optimal dose 1 mg x3): 3 of 7 | Mean tumour size (mm^2) on day 4 [2, 5]: 0 mm^2 | Mean tumour size (mm^2) on day 9 [2, 5]: 11.41 ± 4.69 mm^2 | Mean tumour size (mm^2) on day 14 [2, 5]: 61.08 ± 23.84 mm^2 | Mean tumour size (mm^2) at day 1 [2, 5]: 22.03 ± 0.63 mm^2 | Relapse of Tumour ([2]; Group 2, 0.5 mg x3): 0% | Free of Tumour at end of Follow-Up ([2]; Group 2, 0.5 mg x3, n=7): 28.57% | Tumour Response: complete response ([2]; Group 2, 0.5 mg x3, n=7): 28.57% | Mean tumour size (mm^2) on day 4 [2, 6]: 20.60 ± 5.71 mm^2 | Mean tumour size (mm^2) on day 9 [2, 6]: 68.49 ± 12.74 mm^2 | Mean tumour size (mm^2) on day 14 [2, 6]: 69.42 ± 17.70 mm^2 | Mean tumour size (mm^2) at day 1 [2, 6]: 21.25 ± 0.64 mm^2 | Tumour Response: complete response ([2]; Group 3, 0.25 mg x3, n=9): 0% | adverse events or toxic effects ([2]; all LTX-315 groups, apart from wound formation): no other adverse events or toxic effects were observed | tumour growth after re-inoculation in comparison with control animals ([3]; 9 mice previously treated with LTX-315 0.5 or 1 mg, P<0.01): inhibition (P<0.01) of tumour growth was observed | animals with complete regression after re-inoculation ([3]; of 9 re-inoculated mice): 2 animals | mice in which inhibition was observed after re-inoculation ([3]; of 9 re-inoculated mice): 7 mice
